The results in this text go back to publication PMC9026148, “Pre-Clinical Study Evaluating Novel Protein Phosphatase 2A Activators as Therapeutics for Neuroblastoma” (Cancers, 2022).

The structures appear in SMILES notation. Like-named read-outs stand apart in the source and are kept apart here.

One data set concerns the target T1, CYP-3A4 (Homo sapiens, UniProt P08684).
T1 construct: tissue Bioduro, LLC (contract lab that ran the assay); host or cells: human liver microsomes
Description: Time-dependent CYP-3A4 inhibition (midazolam turnover, human liver microsomes). It is filed as in vitro ADME. As to conditions: for IC50: 50% inhibition of midazolam turnover. As for the experimental part: Time-dependent CYP-3A4 inhibition assays were performed by Bioduro, LLC. In brief, the test compound is pre-incubated with human liver microsomes (0.25 mg/mL in reaction) and NADPH (0.5 mM in reaction) for 5, 30, and 60 min to allow metabolite formation. Midazolam, a known standard substrate of CYP-3A4, is added to give 2.5 µM reaction concentration, and consumption (microsome stability) of midazolam is assayed as above.
(Liver microsomes are a subcellular fraction often used to study metabolism.)

The subject of another data set is PP2A. The experiment in a line: PP2A immunoprecipitation phosphatase assay in SK-N-AS cells. The data set is classed as cell-based, human. As to conditions: 24 h; for PP2A activation compared with FTY720: 10 μM vs FTY720 5 μM, p ≤ 0.01; for PP2A activation (percent PP2A activity): 10 μM, control 100 ± 0%. As for the experimental part:
SK-N-AS cells (1 × 10^6) were treated with FTY720 (5 μM), 792 (10 μM), or 1154 (10 μM) for 24 h and lysed using HEPES (AC215001000, Thermo Fisher Scientific Inc.), MgCl2 (MX0045-4, EM Science, Gibbstown, NJ, USA), KCl (02-003-741, Thermo Fisher Scientific Inc.), PMSF (Sigma Aldrich), dithiothreitol (EC-601, National Diagnostics, Atlanta, GA, USA), and Igepal CA-630 ([…], Sigma Aldrich) for 20 min on ice. Cell lysates were centrifuged at 17,000 rpm for 30 min at 4 °C. The commercially available PP2A Immunoprecipitation Phosphatase Assay Kit (17-313, EMD Millipore) has been used by other investigators to directly measure PP2A activity and was utilized per manufacturer's protocol to evaluate the activity of PP2A following treatment and compared to untreated cells. Experiments were completed at least in triplicate, and data reported as mean fold change ± standard error of the mean (SEM).

Another data set concerns WAC2 cells. The experiment in a line: Cell cycle analysis by flow cytometry (PI), WAC2. To be noted: WAC2, 15 μM, 24 h; for percentage of cells in the S phase: untreated 38.2 ± 1.0; for percentage of cells in G1: untreated 44.7 ± 1.6. The data set is classed as cell-based, human. As for the experimental part:
To evaluate cell cycle, cells (1 × 10^6) were plated and maintained in respective media with reduced FBS (4%) for cell synchronization. […] Cells were washed with phosphate-buffered saline (PBS) and fixed at 4 °C for 30 min with 100% ethanol. Following a second PBS wash, cells were stained with propidium iodide (PI, Invitrogen, Waltham, MA, USA), RNAse A (0.1 mg/mL, Qiagen, Germantown, MD, USA), and 0.1% TritonX (Active Motif, Carlsbad, CA, USA), and FACSCalibur^TM Flow Cytometer (BD Biosciences, Franklin Lakes, NJ, USA) was used for examination. FlowJo software (FlowJo, LLC, Ashland, OR, USA) was used for data analysis. Data reported as mean percentage cells in phase ± SEM.
(A flow cytometer gives signals particle by particle.)

The subject of a further data set is SK-N-AS flank tumors. Description: SK-N-AS flank tumor growth in athymic nude mice. It is filed as in vivo, mouse. To be noted: 50 mg/kg bid po; for Percent necrosis in SK-N-AS tumors: H&E, blinded pathologist, vehicle 8.3 ± 3.3%; for tumor volume: SK-N-AS flank tumors, after 9 days, vehicle 2104 ± 53. As to the method:
(§1) SK-N-AS (1.8 × 10^6) or SK-N-BE(2) (1.5 × 10^6) cells in 25% Matrigel™ (BD Biosciences) were injected into the right flank of 6-week-old female athymic nude mice (Fredricks, Charles River, Wilmington, MA, USA) (n = 5 for SK-N-AS vehicle treated, n = 7 for SK-N-AS 792 or 1154 treatment and all SK-N-BE(2) experimental groups). Calipers were used to measure tumors three times per week, and volumes were calculated by the formula (width^2 × length)/2, where width was the smaller measurement. After tumors reached a volume of 100 mm^3, animals were randomized to three groups to receive 100 µL of either vehicle (N,N-dimethylacetamide (DMA, 271012, Sigma Aldrich) and Kolliphor® HS 15 (Solutol, 42996, Sigma Aldrich)), 792 (50 mg/kg in DMA and Solutol), or 1154 (50 mg/kg in DMA and Solutol) twice daily by oral gavage; dosing based on previously published in vivo cancer models. Animals were weighed weekly and were humanely euthanized in their home cages with CO2 and cervical dislocation when control tumors reached 2000 mm^3; either 9 (SK-N-AS tumors) or 19 days (SK-N-BE(2) tumors) following treatment initiation, or when IACUC parameters were met. Power analysis was completed prior to the study.

The next data set concerns SK-N-BE(2) flank tumors. Description: SK-N-BE(2) flank tumor growth in athymic nude mice. The data set is classed as in vivo, mouse. To be noted: 50 mg/kg bid po. As to the method: as §1
The test system of data set [1] is SK-N-AS, SK-N-BE(2), SH-EP, WAC2 cells. The experiment in a line: Modified Boyden chamber invasion assay. The data set is classed as cell-based, human. As to conditions: 24-h treatment, same doses as scratch assay; four cell lines. As to the method:
Since the established neuroblastoma cell lines grow as adherent cells, migration in SK-N-AS, SK-N-BE(2), SH-EP, and WAC2 cells was examined using monolayer wound healing (scratch) assay. […] Once cells reached 80% confluence, a sterile 200 μL pipette tip was used to make a standard scratch in the cell layer. Photographs of the plates were obtained at 0, 12, 24, and 36 h. ImageJ MRI Wound Healing Tool (http://imagej.nih.gov/ij/ (accessed on 14 October 2019) quantified the open wound area, and data reported as fold change of the open area ± SEM. Invasion was evaluated with a modified Boyden chamber technique. The insert bottoms were coated with collagen type I (10 µg/mL, MP Biomedicals, Santa Ana, CA, USA). The insert tops were coated with a layer of Matrigel^TM (1 mg/mL, 50 μL, BD Biosciences). Cells were treated for 24 h with 792 (SK-N-AS 10 μM; SK-N-BE(2), SH-EP, WAC2 15 μM) or 1154 (SK-N-AS, SK-N-BE(2) 10 μM; SH-EP, WAC2 15 μM), plated (4 × 10^4 cells), and allowed to invade through the membrane for 24 h. Insert membranes were fixed using 4% paraformaldehyde, stained with 1% crystal violet for 15 min, photographed, and invasion quantified with ImageJ (http://imagej.nih.gov/ij/ (accessed on 10 September 2019)). Invasion data were reported as mean percent membrane occupied by cells ± SEM. Experiments were completed with at least three biologic replicates.

[2] abbreviates: 5 min pre-incubation, read-out: IC50 at Pre-incubation time 5 min.
The mark [3] stands for this setting: 30 min pre-incubation, read-out: IC50 at Pre-incubation time 30 min.
Where [4] appears, read: 60 min pre-incubation, read-out: IC50 at Pre-incubation time 60 min.

T1 sequence (P08684 whole entry): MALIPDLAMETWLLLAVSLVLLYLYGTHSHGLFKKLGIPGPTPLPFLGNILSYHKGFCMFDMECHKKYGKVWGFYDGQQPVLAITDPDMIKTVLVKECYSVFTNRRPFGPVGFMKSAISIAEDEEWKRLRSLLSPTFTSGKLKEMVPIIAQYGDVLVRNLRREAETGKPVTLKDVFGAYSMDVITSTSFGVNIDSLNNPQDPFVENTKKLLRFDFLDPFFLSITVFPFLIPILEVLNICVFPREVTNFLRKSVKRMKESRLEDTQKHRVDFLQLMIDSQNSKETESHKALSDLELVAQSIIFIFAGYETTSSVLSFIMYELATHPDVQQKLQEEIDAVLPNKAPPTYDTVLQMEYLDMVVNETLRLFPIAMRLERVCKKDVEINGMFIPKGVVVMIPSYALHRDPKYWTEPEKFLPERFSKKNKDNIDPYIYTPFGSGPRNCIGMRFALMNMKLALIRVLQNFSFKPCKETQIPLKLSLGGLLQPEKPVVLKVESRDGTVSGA

Turning to `O=S(=O)(N[C@H]1COC[C@@H](n2c3ccc(Cl)cc3c3cc(Cl)ccc32)[C@@H]1O)c1ccc(OC(F)(F)F)cc1` [ATUX-792], the IC50 at CYP-3A4 (setting [2]) is above 50 µM. The IC50 at CYP-3A4 (setting [3]) was above 50 µM. Besides, at CYP-3A4 (setting [4]), the IC50 is above 50 µM. Moreover, the “CYP-3A4 inhibition” value on CYP-3A4 (time-dependent inhibition assay) is reported as “no CYP-3A4 inhibition”. In addition, in the data set on PP2A, the “PP2A activation compared with FTY720” value was “significantly more than FTY720” and the “PP2A activation (percent PP2A activity)” value amounted to 117.5 ± 5.6%. In the data set with WAC2 cells, the “Mean % G1 (± SEM)” value is reported as 54.5 (± 2.3) %, the “Mean % G2 (± SEM)” value is recorded as 14.3 (± 1.1) %, the “Mean % S (± SEM)” value is on record as 25.4 (± 2.5) % and the percentage of cells in the S phase amounted to 25.4 ± 2.5%. This molecule also gave a percentage of cells in G1 in the data set with WAC2 cells of 54.5 ± 2.3%. Besides, in the data set on SK-N-AS flank tumors, the “Percent necrosis in SK-N-AS tumors” value is 33.3 ± 8.8% and the tumor volume is listed as 1309 ± 169 mm^3. For the same molecule, the “ganglion cells in tumors (tumor cell differentiation)” value in the data set on SK-N-AS flank tumors (SK-N-AS tumors, H&E staining) is “ganglion cells present”. The same molecule yielded a tumor volume in the data set with SK-N-BE(2) flank tumors (after 17 days, vehicle 2362 ± 53) of 1383 ± 243 mm^3. Besides, in data set [1], the Invasion result is on record as “significantly decreased”.
As to `O=S(=O)(NC1CCCC(N2c3ccccc3CCc3ccccc32)C1O)c1ccc(OC(F)(F)F)cc1` (stereo not shown) [DBK-1154], the IC50 at CYP-3A4 (setting [2]) was found to be 42 µM. Also, at CYP-3A4 (setting [3]), the IC50 was 27 µM. The half-inhibitory concentration (IC50) on CYP-3A4 (setting [4]) is 18 µM. In addition, at CYP-3A4 (human, human liver microsomes, probe midazolam (2.5 µM), ratio IC50 5 min / 60 min pre-incubation), the IC50 shift amounted to 2.4. Further, in the data set with PP2A, the “PP2A activation compared with FTY720” value is “significantly more than FTY720” and the “PP2A activation (percent PP2A activity)” value is reported as 134.8 ± 18.4%. In the data set on WAC2 cells, the “Mean % G1 (± SEM)” value is listed as 49.6 (± 2.4) %, the “Mean % G2 (± SEM)” value is 19.0 (± 1.5) %, the “Mean % S (± SEM)” value is listed as 28.4 (± 1.6) % and the percentage of cells in the S phase came to 28.4 ± 1.6%. In the data set on WAC2 cells, this molecule returned a percentage of cells in G1 of 49.6 ± 2.4%. In the data set with SK-N-AS flank tumors, the “Percent necrosis in SK-N-AS tumors” value amounted to 23.3 ± 6.7% and the tumor volume turned out to be 2124 ± 275 mm^3. In the data set with SK-N-BE(2) flank tumors (by day 19, vehicle 2362 ± 53), this molecule came in with a tumor volume of 1628 ± 362 mm^3. In data set [1], the Invasion result is listed as “significantly decreased”.

As a reminder, the IC50 is the point on the concentration scale where inhibition reaches its midpoint.
